From US4933456A, “Dipyridoxyl phosphate NMRI contrast agents” (Salutar, Inc., priority 1987, dated 1990)

How the values were obtained:
[1] = cited from earlier work
[2] = Potentiometric titration of the ligand DPDP; type: physicochemical; details: pH of 3 and above
Method: The compound DPDP was studied potentiometrically from pH 11.2 to 2.0. Data sets were collected on a custom-built automatic potentiometric titration apparatus composed of a METROHM 655 DOSIMAT automatic buret, a FISHER ACCUMET pH meter with a CORNING calomel combination electrode, a custom-blown water jacketed titration cell, a BRINKMAN LAUDA K-2/R constant temperature bath and a COMMODORE 64 computer. […] Data analysis was performed on an IBM-AT computer using the least squares program, BETA (Harris, W. et al, supra), and the data analysis program, HANDNBAR (Harris, W. et al, supra). The titrants were standardized by phenophthalein titration as follows: KOH was calibrated against potassium hydrogen phthalate (a primary standard), and HCl solutions were calibrated against the KOH standard. […] All solutions were made from distilled, deionized water that was further purified on a MILLI-Q cartridge system, degassed, and then kept under an atmosphere of argon which had been scrubbed for CO2 and O2. Additions of EDTA and Mn(II) solutions were performed using calibrated GILMOT pipets.

## O=C(O)C(NCCNC(C(=O)O)c1ccccc1O)c1ccccc1O (centres unmarked) [EHPG, N,N'-ethylenebis-2-(o-hydroxyphenyl)glycine]
[1]; Anderegg et al
  stability of the Fe(III) chelate: high stability
[1]; above pH 5, also under inert atmospheres, Frost et al
  oxidation of manganese(II) in EHPG complexes: irreversibly oxidized

## O=C(O)CN(CCN(CC(=O)O)Cc1ccccc1O)Cc1ccccc1O [HBED, N,N'-bis(2-hydroxybenzyl)ethylenediamine-N,N'-diacetic acid]
[1]; manganese chelate, reported by L'Eplathenier et al
  log Kf (formation constant): 14.8
[1]; titrations of L'Eplathenier et al, judged from Patch et al
  oxidation of manganese(II) by the phenolic ligand during titration: oxidized by the phenolic ligand

## Cc1ncc(COP(=O)(O)O)c(CN(CCN(CC(=O)O)Cc2c(COP(=O)(O)O)cnc(C)c2O)CC(=O)O)c1O [DPDP, N,N'-bis-(pyridoxal-5-phosphate)ethylenediamine-N,N'-diacetic acid or N,N'-bis(3-hydroxy-2-methyl-5-phosphonomethyl-4-pyridylmethyl)ethylenediamine-N,N'-diacetic acid]
[2]
  ionization state of the ligand: anionic and possesses deprotonated metal binding sites
